Data published in patent US7378375B1, “Substituted pyridine herbicides” (Syngenta Crop Protection, Inc., priority 2000, dated 2008).

What was measured:
[1] = tested on: Monocotyledonous and dicotyledonous test plants; test: Herbicidal action before emergence of the plants (pre-emergence action), greenhouse pot test, 9-level rating after 4 weeks; format: in vivo; conditions: 250 g/ha, rated after 4 weeks, 9-level scale
Outline: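 Compounds applied pre-emergence as a spray (500 l water/ha) of aqueous suspension or emulsion onto soil immediately after sowing mono- and dicot species in pots. Greenhouse-grown; damage rated after 4 weeks on a 9-level scale (1=complete damage, 9=no effect).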

[2] = tested on: Monocotyledonous and dicotyledonous test plants; test: Post-emergence herbicidal action, greenhouse pot test, sprayed at the 2- to 3-leaf stage, 9-level rating after 2 to 3 weeks; format: in vivo; conditions: 250 g/ha, rated after 2 to 3 weeks, 9-level scale
Outline: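 Plants grown in standard soil in pots; test substances sprayed at the 2- to 3-leaf stage at optimum dosage (500 l water/ha) as aqueous suspension or emulsion from formulated concentrates. Plants then kept in the greenhouse under optimum conditions; rated after 2 to 3 weeks on a 9-level scale (1=complete damage, 9=no effect).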

Structure (SMILES) | melting point | Pre-emergence action rating, Abutilon [1] | Pre-emergence action rating, Amaranthus [1] | Pre-emergence action rating, Chenop. [1] | Pre-emergence action rating, Digitaria [1] | Pre-emergence action rating, Echino. [1] | Pre-emergence action rating, Panicum [1] | Post-emergence action rating, Abutilon [2] | Post-emergence action rating, Amaranth [2] | Post-emergence action rating, Chenop. [2] | Post-emergence action rating, Digitaria [2] | Post-emergence action rating, Echino. [2] | Post-emergence action rating, Ipopur. [2] | Post-emergence action rating, Panicum [2] | Post-emergence action rating, Xanth. [2]
CC(=O)OCc1nc(C(F)(F)F)ccc1C(=O)C1=C(O)C2CCC(C2)C1=O.[K+] (centres unmarked) | 145 to 150 °C |  |  |  |  |  |  |  |  |  |  |  |  |  | 
COCc1nc(C(F)(F)F)ccc1C(=O)c1c(C)nn(C)c1O [1.001] | 138 to 140 °C |  |  |  |  |  |  |  |  |  |  |  |  |  | 
O=C(C1=C(O)C2CCC(C2)C1=O)c1ccc(C(F)(F)F)nc1COCCCO (centres unmarked) [A847-B52] |  | 4 | 1 | 4 | 3 | 2 | 1 | 2 | 3 | 1 | 2 | 1 | 4 | 1 | 2
O=C(C1=C(O)C2CCC(C2)C1=O)c1ccc(C(F)(F)F)nc1COCC1CCCO1 (centres unmarked) [A848-B52] |  | 7 | 1 | 1 | 1 | 1 | 1 | 2 | 1 | 1 | 2 | 2 | 2 | 2 | 2
N#CCCOCc1nc(C(F)(F)F)ccc1C(=O)C1=C(O)C2CCC(C2)C1=O (centres unmarked) [A849-B52] |  | 2 | 1 | 1 | 2 | 2 | 1 | 2 | 2 | 2 | 2 | 3 | 2 | 2 | 2
O=C(C1=C(O)C2CCC(C2)C1=O)c1ccc(C(F)(F)F)nc1COCCCl (centres unmarked) [A850-B52] |  | 1 | 2 | 1 | 2 | 1 | 1 | 2 | 2 | 1 | 2 | 2 | 2 | 2 | 2
O=C(C1=C(O)C2CCC(C2)C1=O)c1ccc(C(F)(F)F)nc1COC1COCOC1 (centres unmarked) [A851-B52] |  | 1 | 1 | 1 | 1 | 1 | 1 | 3 | 2 | 1 | 3 | 4 | 3 | 3 | 3
O=C(C1=C(O)C2CCC(C2)C1=O)c1ccc(C(F)(F)F)nc1COCC1COCO1 (centres unmarked) [A852-B52] |  | 4 | 1 | 2 | 1 | 1 | 1 | 3 | 3 | 1 | 4 | 4 | 3 | 3 | 3
